ChEMBL document CHEMBL5143754, “Novel Bcl-2 Inhibitors Selectively Disrupt the Autophagy-Specific Bcl-2-Beclin 1 Protein-Protein Interaction” (ACS Med Chem Lett, 2022)

What was measured:
[1] = Half life in ICR/CD-1 mouse liver microsomes at 2 uM preincubated for 5 mins followed by NADPH regenerating system addition by LC-MS/MS analysis; assay type: ADME, Microsome
[2] = molecular target: T1, Apoptosis regulator Bcl-2 (Homo sapiens, UniProt P10415); test: Inhibition of biotin-linker-Beclin 1 BH3 peptide binding to human C-terminal 6His-tagged Bcl-2 (1 to 218 residues) expressed in Escherichia coli BL21 Star (DE3) pLysS measured after 3 hrs by AlphaLISA assay
T1 sequence (P10415 whole entry, the tested form may be a part): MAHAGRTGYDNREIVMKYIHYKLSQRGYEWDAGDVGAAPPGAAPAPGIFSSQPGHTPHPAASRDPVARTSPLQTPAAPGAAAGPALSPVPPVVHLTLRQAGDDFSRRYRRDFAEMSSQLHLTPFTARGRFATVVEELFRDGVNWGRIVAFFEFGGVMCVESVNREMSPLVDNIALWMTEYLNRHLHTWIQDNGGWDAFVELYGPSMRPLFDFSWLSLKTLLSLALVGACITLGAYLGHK

[3] = molecular target: T1, Apoptosis regulator Bcl-2; test: Inhibition of biotin-linker-Bax BH3 peptide binding to human C-terminal 6His-tagged Bcl-2 (1 to 218 residues) expressed in Escherichia coli BL21 Star (DE3) pLysS measured after 3 hrs by AlphaLISA assay

Row | half-life at 2 µM [1] | IC50 [2] | SMILES | IC50 [3]
1 |  | 309 nM | CC(C)(C)OC(=O)Nc1ccc(C2=NN(C(=O)c3ccc(Br)cc3)C(c3ccccc3)C2)cn1 (racemic) | 
2 |  | 1640 nM | COC(=O)c1ccc(C2=NN(C(=O)c3ccc(Br)cc3)C(c3ccccc3)C2)cc1 (racemic) | 
3 |  | 32.8 nM | CCOC(=O)Nc1ccc(C2=NN(C(=O)c3ccc(Br)cc3)C(c3ccccc3)C2)cc1 (racemic) | 6620 nM
4 |  | 2 nM | CC(C)OC(=O)Nc1ccc(C2=NN(C(=O)c3ccc(Br)cc3)C(c3ccccc3)C2C)cn1 (racemic) | 157 nM
5 |  | 31.8 nM | C=CCOC(=O)Nc1ccc(C2=NN(C(=O)c3ccc(Br)cc3)C(c3ccccc3)C2)cc1 (racemic) | 8830 nM
6 | 120 min | 262 nM | CC(C)(C)OC(=O)Nc1ccc(C2=NN(C(=O)c3ccc(Br)cc3)C(c3ccccc3)C2)cc1 (racemic) | 
7 |  | 11100 nM | CC(C)(C)OC(=O)Nc1cccc(C2=NN(C(=O)c3ccc(Br)cc3)C(c3ccccc3)C2)c1 (racemic) | 
8 |  | 172 nM | CC(C)(C)OC(=O)Nc1ccc(C2=NN(C(=O)c3ccc(Br)cc3)C(c3ccccc3)C2c2ccccc2)cc1 (racemic) | 
9 |  | 27.4 nM | CC1C(c2ccc(NC(=O)OC(C)(C)C)cc2)=NN(C(=O)c2ccc(Br)cc2)C1c1ccccc1 (racemic) | 
10 |  | 110 nM | CC(C)OC(=O)c1ccc(C2=NN(C(=O)c3ccc(Br)cc3)C(c3ccccc3)C2)cc1 (racemic) | 4360 nM
11 |  | 5450 nM | CC(C)C(=O)Oc1ccc(C2=NN(C(=O)c3ccc(Br)cc3)C(c3ccccc3)C2)cc1 (racemic) | 
12 |  | 164 nM | CC(C)COC(=O)Nc1ccc(C2=NN(C(=O)c3ccc(Br)cc3)C(c3ccccc3)C2)cc1 (racemic) | 
13 | 120 min | 4.4 nM | CC(C)OC(=O)Nc1ccc(C2=NN(C(=O)c3ccc(Br)cc3)C(c3ccccc3)C2)cc1 (racemic) | 881 nM
14 |  | 44.1 nM | O=C(Nc1ccc(C2=NN(C(=O)c3ccc(Br)cc3)C(c3ccccc3)C2)cc1)OC1CC1 (racemic) | 15100 nM
15 |  | 2100 nM | COC(=O)Nc1ccc(C2=NN(C(=O)c3ccc(Br)cc3)C(c3ccccc3)C2)cc1 (racemic) | 
16 |  | 372 nM | CC(C)(C)OC(=O)Nc1ccc(C2=NN(C(=O)c3ccc(Br)cc3)C(c3ccccc3)C2)nc1 (racemic) | 
17 |  | 9220 nM | CC(C)(C)NC(=O)Nc1ccc(C2=NN(C(=O)c3ccc(Br)cc3)C(c3ccccc3)C2)cc1 (racemic) | 

Continued, compound first:

Row | SMILES | half-life at 2 µM [1] | IC50 [2] | IC50 [3]
18 | Cc1ccc(C(=O)N2N=C(c3ccc(NS(C)(=O)=O)cc3)CC2c2ccccc2Br)cc1 (configuration not stated) | 2.9 min |  | 
19 | CC(C)(C)OC(=O)Nc1ccc(C2=NN(C(=O)c3ccc(Br)cc3)C(c3cncs3)C2)cc1 (racemic) |  | 4360 nM | 
20 | COc1ccc(C(=O)N2N=C(c3ccc(NS(C)(=O)=O)cc3)CC2c2ccco2)cc1 (racemic) |  | 10100 nM | 
21 | CN(C)C(=O)c1ccc(C2=NN(C(=O)c3ccc(Br)cc3)C(c3ccccc3)C2)cc1 (racemic) |  | 5910 nM | 
22 | CC(C)(C)OC(=O)Nc1ccc(C2=NN(C(=O)c3ccc([N+](=O)[O-])cc3)C(c3ccccc3)C2)cc1 (racemic) | 120 min | 439 nM | 
23 | CC(C)(C)OC(=O)Nc1ccc(C2=NN(C(=O)c3cccnc3)C(c3ccccc3)C2)cc1 (racemic) |  | 14500 nM | 
24 | C#CCCOC(=O)Nc1ccc(C2=NN(C(=O)c3ccc(Br)cc3)C(c3ccccc3)C2)cc1 (racemic) |  | 65 nM | 
25 | CS(=O)(=O)Nc1ccc(C2=NN(C(=O)c3ccc(C#N)cc3)C(c3ccco3)C2)cc1 (racemic) |  | 7440 nM | 
26 | CS(=O)(=O)Nc1ccc(C2=NN(C(=O)c3ccc(Br)cc3)C(c3ccco3)C2)cc1 (racemic) | 2.9 min | 2470 nM | 
27 | CC(C)(C)OC(=O)Nc1ccc(C2=NN(C(=O)c3ccc(Br)cc3)C(c3ccco3)C2)cc1 (racemic) |  | 1260 nM | 
28 | CC(C)(C)OC(=O)Nc1ccc(C2=NN(C(=O)c3ccc(Br)cc3)C(c3ccoc3)C2)cc1 (racemic) |  | 3820 nM | 
29 | CS(=O)(=O)Nc1ccc(C2=NN(C(=O)c3ccc(F)cc3)C(c3ccco3)C2)cc1 (racemic) |  | 12700 nM | 
30 | CC(C)(C)OC(=O)Nc1ccc(C2=NN(C(=O)c3ccc(Br)cc3)C(c3cccnc3)C2)cc1 (racemic) |  | 1630 nM | 
31 | CC(C)(C)OC(=O)Nc1ccc(C2=NN(C(=O)c3ccc(Br)cc3)C(c3ccccn3)C2)cc1 (racemic) |  | 650 nM | 
32 | CS(=O)(=O)Nc1ccc(C2=NN(C(=O)c3ccc(Cl)cc3)C(c3ccco3)C2)cc1 (racemic) |  | 2720 nM | 
33 | Cc1ccc(C(=O)N2N=C(c3ccc(NS(C)(=O)=O)cc3)CC2c2ccco2)cc1 (racemic) | 2.9 min | 15900 nM | > 10000 nM
34 | Cc1ccc(C(=O)N2N=C(c3ccc(NC(=O)OC(C)(C)C)cc3)CC2c2ccco2)cc1 (racemic) |  | 3290 nM | 
35 | CC(C)(C)OC(=O)Nc1ccc(C2=NN(C(=O)c3ccc(Br)cc3)C(c3ccncc3)C2)cc1 (racemic) |  | 2780 nM | 
36 | CC(C)(C)OC(=O)Nc1ccc(C2=NN(C(=O)c3ccc(Br)cc3)C(c3nccs3)C2)cc1 (racemic) |  | 1610 nM | 
37 | CS(=O)(=O)Nc1ccc(C2=NN(C(=O)c3ccc([N+](=O)[O-])cc3)C(c3ccco3)C2)cc1 (racemic) | 2.9 min | 1970 nM | 
38 | CS(=O)(=O)Nc1ccc(C2=NN(C(=O)c3ccc(C(F)(F)F)cc3)C(c3ccco3)C2)cc1 (racemic) | 2.9 min | 2880 nM | 
